These are literature values, as cited in patent US20250114351A1, “5-HT2C RECEPTOR MODULATING AGENTS FOR THE TREATMENT OF NEURODEGENERATIVE, MENTAL, COGNITIVE AND AUTOIMMUNE CNS DISORDERS” (priority 2022, published 2025).

The structures appear in SMILES notation.

One data set deals with 5-HT2A (Homo sapiens, UniProt P28223).
The next data set addresses T1, 5-HT2C (Homo sapiens, UniProt P28335).
T1 sequence (P28335 33-458): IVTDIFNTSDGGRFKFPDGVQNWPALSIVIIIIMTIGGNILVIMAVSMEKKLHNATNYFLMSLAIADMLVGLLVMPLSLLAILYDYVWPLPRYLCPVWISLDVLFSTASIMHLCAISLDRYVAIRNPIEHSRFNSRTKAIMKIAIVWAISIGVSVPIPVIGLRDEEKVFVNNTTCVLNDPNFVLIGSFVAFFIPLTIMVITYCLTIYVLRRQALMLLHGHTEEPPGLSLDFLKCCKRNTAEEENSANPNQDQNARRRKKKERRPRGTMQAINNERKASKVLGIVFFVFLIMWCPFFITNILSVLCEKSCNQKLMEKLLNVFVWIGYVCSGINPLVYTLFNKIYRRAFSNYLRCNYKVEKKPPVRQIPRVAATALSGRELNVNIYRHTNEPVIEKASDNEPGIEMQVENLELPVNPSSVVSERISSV

A further data set has as its target 5-HT2B (Homo sapiens, UniProt P41595).

5-HT2A, sequence (P28223 whole entry, species assumed): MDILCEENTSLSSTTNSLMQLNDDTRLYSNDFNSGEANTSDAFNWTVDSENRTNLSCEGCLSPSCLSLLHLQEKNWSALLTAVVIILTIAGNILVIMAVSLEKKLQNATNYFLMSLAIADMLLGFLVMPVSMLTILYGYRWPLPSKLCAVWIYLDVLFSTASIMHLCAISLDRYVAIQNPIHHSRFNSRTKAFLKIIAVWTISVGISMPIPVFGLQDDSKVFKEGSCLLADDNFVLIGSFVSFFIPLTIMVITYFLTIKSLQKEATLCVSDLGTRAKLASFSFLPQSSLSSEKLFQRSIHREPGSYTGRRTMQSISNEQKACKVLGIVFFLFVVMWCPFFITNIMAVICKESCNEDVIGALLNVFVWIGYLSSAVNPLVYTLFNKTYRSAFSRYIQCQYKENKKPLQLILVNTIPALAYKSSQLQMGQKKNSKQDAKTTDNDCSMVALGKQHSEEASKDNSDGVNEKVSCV
5-HT2B, sequence (P41595 whole entry, species assumed): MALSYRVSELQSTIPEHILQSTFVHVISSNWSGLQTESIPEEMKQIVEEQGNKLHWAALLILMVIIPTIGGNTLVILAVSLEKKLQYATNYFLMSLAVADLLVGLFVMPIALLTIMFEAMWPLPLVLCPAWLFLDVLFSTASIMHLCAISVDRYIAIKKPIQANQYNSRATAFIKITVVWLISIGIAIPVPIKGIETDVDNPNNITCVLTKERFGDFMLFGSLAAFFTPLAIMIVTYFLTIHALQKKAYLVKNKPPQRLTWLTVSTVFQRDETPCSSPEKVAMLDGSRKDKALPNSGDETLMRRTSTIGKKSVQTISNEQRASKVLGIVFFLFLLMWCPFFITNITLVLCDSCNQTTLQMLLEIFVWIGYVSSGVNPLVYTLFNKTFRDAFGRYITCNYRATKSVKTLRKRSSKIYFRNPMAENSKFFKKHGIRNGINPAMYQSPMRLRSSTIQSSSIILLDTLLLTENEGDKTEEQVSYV

Broadly, the EC50 is the concentration giving half of the maximal effect. Regarding `c1cc2c3c(c1)[C@H]1CCC[C@H]1CN3CCNC2` [Vabicaserin], the EC50 at 5-HT2A was 1650 nM. For the compound `C[C@H](N)Cn1ccc2cc(F)c(Cl)cc21` [RO 60-01752, (S)-2-(6-chloro-5-fluoroindol-1-yl)-1-methylethylamine], on 5-HT2C, the “5-HT2C Emax” value is recorded as 88 ± 20%. The “5-HT2A Emax” value on 5-HT2A is reported as 91 ± 5%. In addition, the “5-HT2B Emax” value at 5-HT2B is 130 ± 30%. For the compound `Clc1cccc(COc2cncc(N3CCNCC3)n2)c1` [CP-809101, 2-(3-Chlorobenzyloxy)-6-(piperazin-1-yl)pyrazine], at 5-HT2A, the “5-HT2A Emax” value is reported as 67% and the EC50 was 153 nM. `c1cc2c3c(c1)[C@H]1CCC[C@H]1N3CCNC2` [WAY-163909, (7bR,10aR)-1,2,3,4,8,9,10,10a-octahydro-7bH-cyclopenta-[b][1,4]diazepino[6,7,1hi]indole]: the EC50 on 5-HT2B is 185 ± 105 nM. Regarding `C[C@H]1CNCCc2ccc(Cl)cc21` [Lorcaserin, (1R)-8-chloro-2,3,4,5-tetrahydro-1-methyl-1H-3-benzazepine], the “5-HT2C Emax” value on 5-HT2C was 100%. Also, the “5-HT2A Emax” value at 5-HT2A is recorded as 75%.
